Results taken from patent publication US11339150B2, “Benzimidazole compounds as HDAC6 inhibitors” (OnKure, Inc., priority 2019, dated 2022).

What was measured:
HDAC6 = target: T1, HDAC6 (Homo sapiens, UniProt Q9UBN7); experiment: HDAC assay (fluorogenic substrate), HDAC6; assay type: biochemical
T1 sequence (Q9UBN7 1-1215): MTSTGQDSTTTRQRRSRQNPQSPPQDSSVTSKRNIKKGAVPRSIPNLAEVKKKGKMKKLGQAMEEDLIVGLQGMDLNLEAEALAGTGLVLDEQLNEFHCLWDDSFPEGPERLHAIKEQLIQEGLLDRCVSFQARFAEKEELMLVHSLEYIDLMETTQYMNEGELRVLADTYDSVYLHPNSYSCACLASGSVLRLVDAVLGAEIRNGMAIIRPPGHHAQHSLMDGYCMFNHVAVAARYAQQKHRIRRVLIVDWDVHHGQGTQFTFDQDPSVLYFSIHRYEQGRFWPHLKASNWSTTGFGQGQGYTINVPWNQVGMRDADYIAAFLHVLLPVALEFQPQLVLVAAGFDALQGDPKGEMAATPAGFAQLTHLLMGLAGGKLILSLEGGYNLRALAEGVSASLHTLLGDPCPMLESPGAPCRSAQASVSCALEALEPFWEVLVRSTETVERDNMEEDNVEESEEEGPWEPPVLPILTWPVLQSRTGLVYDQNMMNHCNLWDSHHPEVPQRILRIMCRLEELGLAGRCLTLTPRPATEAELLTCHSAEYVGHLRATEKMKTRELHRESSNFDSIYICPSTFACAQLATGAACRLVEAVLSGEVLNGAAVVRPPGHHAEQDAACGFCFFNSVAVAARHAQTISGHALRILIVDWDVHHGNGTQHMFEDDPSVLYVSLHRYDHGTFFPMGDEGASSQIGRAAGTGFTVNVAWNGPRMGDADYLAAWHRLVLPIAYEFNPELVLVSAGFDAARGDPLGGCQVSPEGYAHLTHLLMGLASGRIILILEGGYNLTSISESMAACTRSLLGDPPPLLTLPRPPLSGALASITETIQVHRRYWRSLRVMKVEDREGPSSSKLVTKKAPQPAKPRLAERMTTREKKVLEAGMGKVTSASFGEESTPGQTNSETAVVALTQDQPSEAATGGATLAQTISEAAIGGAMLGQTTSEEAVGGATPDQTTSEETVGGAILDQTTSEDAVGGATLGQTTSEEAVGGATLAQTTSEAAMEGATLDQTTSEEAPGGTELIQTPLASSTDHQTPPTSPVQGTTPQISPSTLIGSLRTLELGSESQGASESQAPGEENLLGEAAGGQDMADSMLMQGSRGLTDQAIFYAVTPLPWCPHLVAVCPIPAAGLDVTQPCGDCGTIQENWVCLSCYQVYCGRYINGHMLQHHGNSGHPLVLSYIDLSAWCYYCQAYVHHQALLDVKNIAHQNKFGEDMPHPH
Experimental: (§1) Base Reaction buffer: 50 mM Tris-HCl, pH8.0, 137 mM NaCl, 2.7 mM KCl, and 1 mM MgCl2. Add fresh: 1 mg/ml BSA, 1% DMSO
(§2) Fluorogenic HDAC General Substrate: 50 μM, Arg-His-Lys-Lys(Ac)
(§3) • 1. Deliver 2× enzyme in wells of reaction plate except No Enzyme control wells. Add buffer in No En wells. • 2. Deliver compounds in 100% DMSO into the enzyme mixture by Acoustic technology (Echo550; nanoliter range). Spin down and pre-incubation. • 3. Deliver 2× Substrate Mixture (Fluorogenic HDAC Substrate and co-factor if applicable) in all reaction wells to initiate the reaction. Spin and shake. • 4. Incubate for 30 min for Class 2A, 1 hr for HDAC1, 2, 3, and 6, and 2 hr for the rest of HDACs and SIRTs at 30° C. with seal. Development Step: • 5. Add Developer with Trichostatin A (or Nicotinamide for SIRTs) to stop the reaction and to generate fluorescent color. • 6. Kinetic measurement for 1.5 hr with Envision with 15 min interval. (Ex/Em=360/460 nm) • 7. Take endpoint reading for analysis after the development reaches plateau.

[1] = test system: Tubulin deacetylation in U266B1 human myeloma cell line; experiment: Tubulin deacetylation inhibition in U266B1 cells; assay type: cell-based; conditions: Cell Type U266B1
Experimental: Tubulin Deacetylation Inhibition
Example 1 was dissolved with DMSO at 10 mM stock. Reference compound TSA was dissolved with DMSO at 10 mM stock. U266B1 human myeloma cell line was purchased from American Type Culture Collection (Manassas, Va.). U266B1 cells were grown in RPMI medium and supplemented with 15% heat-inactivated fetal bovine serum (FBS), 100 μg/ml penicillin, and 100 μg/ml streptomycin. Cultures were maintained at 37° C. in a humidified atmosphere of 5% CO2 and 95% air. 12% Bis-Tris gel and nitrocellulose membrane were purchased from Thermo Fisher. Anti-acetylated-Tubulin antibody (Catalogue #T7451) was purchased from Sigma-Aldrich. Anti-α-Tubulin antibody (Catalogue #sc-12462-R) antibody was purchased from Santa Cruz Biotechnology. Anti-Acetylated Histone H3 (K9) (Catalogue #9649) and anti-Histone H3 (Catalogue #3638) antibodies were purchased from Cell Signaling Technology. Anti-rabbit IgG IRDye 680RD or anti-mouse IgG IRDye 800CW secondary antibodies were purchased from LI-COR.

HDAC1 = HDAC1 (Homo sapiens, UniProt Q13547); experiment: HDAC assay (fluorogenic substrate), HDAC1; assay type: biochemical; conditions: isoform selectivity table
HDAC1, sequence (Q13547 whole entry, canonical isoform): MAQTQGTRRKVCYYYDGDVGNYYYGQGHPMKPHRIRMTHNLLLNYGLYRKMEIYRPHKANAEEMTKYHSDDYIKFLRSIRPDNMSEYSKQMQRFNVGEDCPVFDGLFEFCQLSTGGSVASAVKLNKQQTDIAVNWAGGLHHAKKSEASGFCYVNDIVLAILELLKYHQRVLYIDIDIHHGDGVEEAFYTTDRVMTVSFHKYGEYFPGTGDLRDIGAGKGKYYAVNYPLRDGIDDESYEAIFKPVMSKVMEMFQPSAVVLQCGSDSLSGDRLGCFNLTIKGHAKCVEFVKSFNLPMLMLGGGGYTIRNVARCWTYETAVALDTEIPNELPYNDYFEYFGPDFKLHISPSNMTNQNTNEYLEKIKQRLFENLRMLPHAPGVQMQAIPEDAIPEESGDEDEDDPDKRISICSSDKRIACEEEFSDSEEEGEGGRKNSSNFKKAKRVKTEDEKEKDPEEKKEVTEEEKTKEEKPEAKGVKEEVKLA
Experimental: as §1, §2, §3

HDAC2 = HDAC2 (Homo sapiens, UniProt Q92769); experiment: HDAC assay (fluorogenic substrate), HDAC2; assay type: biochemical; conditions: isoform selectivity table
HDAC2, sequence (Q92769 whole entry, canonical isoform): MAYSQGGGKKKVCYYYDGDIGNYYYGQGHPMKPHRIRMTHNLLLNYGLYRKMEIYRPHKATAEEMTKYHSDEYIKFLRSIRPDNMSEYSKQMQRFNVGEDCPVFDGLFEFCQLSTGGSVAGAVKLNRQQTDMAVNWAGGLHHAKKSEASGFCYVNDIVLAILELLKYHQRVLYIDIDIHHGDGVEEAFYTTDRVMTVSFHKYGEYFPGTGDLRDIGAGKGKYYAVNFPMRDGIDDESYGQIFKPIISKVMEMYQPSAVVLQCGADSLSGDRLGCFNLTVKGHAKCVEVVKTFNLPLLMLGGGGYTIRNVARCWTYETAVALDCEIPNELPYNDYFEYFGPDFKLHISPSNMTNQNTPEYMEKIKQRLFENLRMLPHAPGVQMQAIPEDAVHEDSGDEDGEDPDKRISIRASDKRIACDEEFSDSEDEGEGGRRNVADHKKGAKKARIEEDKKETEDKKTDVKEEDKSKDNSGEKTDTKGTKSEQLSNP
Experimental: as §1, §2, §3

HDAC3 = HDAC3 (Homo sapiens, UniProt O15379); experiment: HDAC assay (fluorogenic substrate), HDAC3; assay type: biochemical; conditions: isoform selectivity table
HDAC3, sequence (O15379 whole entry, canonical isoform): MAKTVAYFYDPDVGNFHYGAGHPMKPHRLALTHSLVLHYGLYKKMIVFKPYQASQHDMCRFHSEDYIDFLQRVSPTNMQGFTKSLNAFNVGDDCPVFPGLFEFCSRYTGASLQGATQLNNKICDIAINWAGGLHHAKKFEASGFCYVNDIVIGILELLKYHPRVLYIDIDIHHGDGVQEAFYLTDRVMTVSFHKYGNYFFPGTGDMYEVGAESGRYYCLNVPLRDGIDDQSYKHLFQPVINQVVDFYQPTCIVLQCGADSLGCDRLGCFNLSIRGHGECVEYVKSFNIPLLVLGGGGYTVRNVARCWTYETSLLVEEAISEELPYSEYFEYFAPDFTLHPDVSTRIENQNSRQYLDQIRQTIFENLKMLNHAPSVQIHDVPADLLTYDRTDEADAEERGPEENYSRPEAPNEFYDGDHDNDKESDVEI
HDAC3, sequence (Q9Y618 395-489 partner limits assumed): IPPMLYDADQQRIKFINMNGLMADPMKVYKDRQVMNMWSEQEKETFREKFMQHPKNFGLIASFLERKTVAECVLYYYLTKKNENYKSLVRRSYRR
Experimental: as §1, §2, §3

[2] = Pharmacokinetic evaluation in male CD1 mice; conditions: mouse, in vivo, po, 10 mg/kg (p.o.)

**Q.** Which inhibition at 10 µM (HDAC6) does the source give for `FC(F)c1nnc(-c2cnc(Nc3cc(-c4ccccc4)c4nc[nH]c4c3)nc2)o1` [Example 1, N-(5-(5-(difluoromethyl)-1,3,4-oxadiazol-2-yl)pyrimidin-2-yl)-4-phenyl-1H-benzo[d]imidazol-6-amine] here?
**A.** > 90%

**Q.** And the “% HDAC6 Inhibition @ 10 uM” value (HDAC6; 10 uM, isoform selectivity table)?
**A.** >90%

**Q.** And the IC50 [1]?
**A.** 2.7 µM

**Q.** What about the inhibition at 10 µM (HDAC1) of the same molecule?
**A.** < 20%

**Q.** What about the inhibition at 10 µM (HDAC2) of the same molecule?
**A.** < 10%

**Q.** And the inhibition at 10 µM (HDAC3)?
**A.** < 10%

**Q.** And the AUC(0-t) [2]?
**A.** 5820 ng·h/mL

**Q.** And the Cmax [2]?
**A.** 1450 ng/mL

**Q.** What about the half-life ([2]; read-out: T1/2 h (converted)) of the same molecule?
**A.** 1.75 h
